Values quoted from earlier work, collected in patent US8109913B2, “Coiled wire for the controlled release of drugs to the eye” (DSM IP Assets B.V., priority 2005, dated 2012).

Key:
[1] = in vitro
[2] = in vivo, device loaded with atropine

Compound	Activity of the drug when released from the coating [1]	Mydriasis [2]
N#Cc1c(N2C[C@@H]3CCCN[C@@H]3C2)c(F)cc2c(=O)c(C(=O)O)cn(C3CC3)c12 [pradofloxacin]	still active	
CN1[C@@H]2CC[C@H]1C[C@@H](OC(=O)C(CO)c1ccccc1)C2 (some centres unmarked) [atropine]		mydriasis can be obtained
